Results published in patent publication US20250289897A1, “LEPTIN RECEPTOR AGONISTIC ANTIBODY AS MONO OR COMBO THERAPIES TO TREAT OBESITY” (ELI LILLY AND COMPANY, priority 2024, published 2025).

Legend:
cyno-LEPR = test: STAT3-luciferase reporter assay in HEK293-STAT3Luc-cmLepR2 cells; assay type: cell-based, Macaca fascicularis
Source text: (§1) LEPR is a cell surface single-pass transmembrane receptor. Activation of LEPR leads to phosphorylation of intracellular STAT3 (pSTAT3) and subsequent target gene transcription. To measure LEPR activation by anti-LEPR antibodies in the present disclosure, five independent STAT-luciferase reporter cell lines were established by introducing DNA plasmids encoding full-length LEPR of different species and STAT3-luciferase reporter gene into HEK293 cells (Table 4). […]
(§2) Before plating the cells for luciferase assays, the poly-D-Lysine coated 96-well plates (Corning Inc, #354651) were rinsed once with phosphate buffered solution (PBS). […] Cell lysing and One-Glo luciferase substrate solution (Promega, #E6120) were then added to each well, and relative luciferase units (RLUs) were measured on a ClarioStar plate reader. For each reporter cell line, positive control LEPR activation was calculated as the average RLUs stimulated by 20 nM recombinant human leptin protein (SEQ ID NO:27) minus the average RLUs of unstimulated cells and was set as maximum LEPR activation (100%). […]

rat-LEPR = target: T1, rat-LEPR (Rattus norvegicus, UniProt Q62959); test: STAT3-luciferase reporter assay in HEK293-STAT3Luc-ratLepR3 cells; assay type: cell-based
T1 construct: introducing DNA plasmids encoding full-length LEPR of different species and STAT3-luciferase reporter gene into HEK293 cells; expressed in transfected cells; host or cells: HEK293 (HEK293-STAT3Luc-ratLepR3)
T1 sequence (Q62959 22-1162): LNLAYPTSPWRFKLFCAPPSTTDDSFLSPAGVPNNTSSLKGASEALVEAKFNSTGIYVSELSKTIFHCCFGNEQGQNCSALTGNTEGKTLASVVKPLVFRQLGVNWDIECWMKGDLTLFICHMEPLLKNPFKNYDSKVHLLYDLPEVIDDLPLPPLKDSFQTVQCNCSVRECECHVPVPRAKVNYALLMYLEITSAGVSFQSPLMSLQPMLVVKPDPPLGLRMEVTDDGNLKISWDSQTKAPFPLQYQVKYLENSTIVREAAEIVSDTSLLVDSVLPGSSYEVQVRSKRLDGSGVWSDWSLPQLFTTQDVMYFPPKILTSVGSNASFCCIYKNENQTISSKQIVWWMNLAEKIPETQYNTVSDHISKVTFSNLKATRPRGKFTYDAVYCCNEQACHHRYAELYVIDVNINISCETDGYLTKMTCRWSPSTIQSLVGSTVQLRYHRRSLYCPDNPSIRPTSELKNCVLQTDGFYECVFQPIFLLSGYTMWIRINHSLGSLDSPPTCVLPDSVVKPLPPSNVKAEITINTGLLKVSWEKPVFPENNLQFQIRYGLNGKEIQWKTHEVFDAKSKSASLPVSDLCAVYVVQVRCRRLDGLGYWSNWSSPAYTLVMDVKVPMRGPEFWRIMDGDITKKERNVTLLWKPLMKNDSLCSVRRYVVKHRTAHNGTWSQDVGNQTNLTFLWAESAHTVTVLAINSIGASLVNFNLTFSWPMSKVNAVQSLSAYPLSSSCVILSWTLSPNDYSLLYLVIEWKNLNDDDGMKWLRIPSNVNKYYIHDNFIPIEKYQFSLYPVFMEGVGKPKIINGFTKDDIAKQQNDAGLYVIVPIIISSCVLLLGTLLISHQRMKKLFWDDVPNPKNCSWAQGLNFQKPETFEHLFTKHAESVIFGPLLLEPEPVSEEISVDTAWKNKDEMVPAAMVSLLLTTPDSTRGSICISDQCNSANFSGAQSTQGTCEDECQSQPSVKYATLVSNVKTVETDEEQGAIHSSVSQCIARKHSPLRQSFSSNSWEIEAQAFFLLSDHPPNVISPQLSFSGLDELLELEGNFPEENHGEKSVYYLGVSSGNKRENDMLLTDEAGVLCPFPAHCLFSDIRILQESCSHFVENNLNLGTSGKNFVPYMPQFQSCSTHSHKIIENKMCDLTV
Source text: as §1, §2

EC50 (cyno-LEPR; STAT3-luciferase, 20 hours, read-out: EC50 (nM) ± SEM): 0.674 ± 0.11 nM | EC50 (rat-LEPR; antibodies at concentrations up to 90 nM, read-out: EC50 (nM) ± SEM): 6.29 ± 0.62 nM | Agonism (%) ± SEM (rat-LEPR; vs 20 nM recombinant human leptin, antibodies up to 90 nM): 106.1%
Substance: human leptin: recombinant human leptin protein (SEQ ID NO:27), positive control
Agonism (%) ± SEM (cyno-LEPR; top of fitted curve vs response to 20 nM recombinant human leptin): 106.34%
